We go through two molecules from patent publication US20030181354A1, “Method for central nervous system targeting through the ocular route of drug delivery” (priority 2002, published 2003).

Some results are limits rather than exact numbers.

How the values of series [1] were obtained:
A study was conducted to examine for the first time the neuro-ocular tissue distribution of brimonidine following one single 50 μl instillation of 3H-Alphagan aqueous solution (0.2%) into the albino rabbit eye. Both eyes and the brain were dissected. Both side specimens of aqueous humor, cornea, iris, lens, vitreous, conjunctiva, sclera, ciliary body, choroid, retina, optic nerve, optic tract, olfactory bulb, as well as corpus callosum and blood samples were collected. The corpus callosum was chosen as an indicator of general availability of the drug in the brain. The olfactory bulbs were included to rule out ocular-brain drug delivery through the nasal cavity.
In the method employed, following single instillation of 50 μl of [3H]-radio labeled brimonidine tartrate in the cul-de-sac of the right eye, male albino rabbits (2-2.5 kg) were sacrificed at the selected time point (15, 30 min., 1, 2. 3, and 4 h). Both eyes and the brain were dissected. Both sides specimens of aqueous humor, cornea, iris, lens, vitreous, conjunctiva, sclera, ciliary body, choroid, retina, optic nerve, optic tract, as well as chiasm, cerebral and blood samples were weighted before combustion in Packard sample Oxidizer (model 307), and radioactive [3H] brimonidine liquid scintillation counting.

For series [2] the following is noted: reported; cited from earlier work.
In series [3] the test system is memory. The note with it: very small doses, monkeys; cited from earlier work.
Series [4] deals with alpha 2-adrenoceptor regulated serotonin release. The note with it: rat hippocampus in vivo; cited from earlier work.
The subject of series [5] is migraine related symptoms. The note with it: 0.2% topical to the eye, as additional antiglaucoma agent. The text has this: A patient with a history of migraine, and both eyes primary open angle glaucoma.
A patient with a history of migraine, and right eye primary open angle glaucoma.

`Brc1c(NC2=NCCN2)ccc2nccnc12` [brimonidine, 5-bromo-6-(2-imidozolin-2-ylamino) quinoxaline]: in series [1] (15 min, P<0.001), the “contralateral eye choroid peak higher than in the blood” value is recorded as 99.5 folds and the “contralateral eye ciliary body peak higher than in the blood” value is given as 76.5 folds. For the same molecule, in series [1] (P<0.01), the “corpus callosum AUC higher than in the left optic nerve” value was 118% and the “corpus callosum AUC higher than in the right optic nerve” value came to 177%. Further, the “corpus callosum AUC higher than in the right optic tract” value in series [1] (P<0.05) is listed as 123%. Besides, the “corpus callosum AUC higher than in the left optic tract” value in series [1] (P<0.10) turned out to be 111%. Further, in series [1] (at 5 min), the “corpus callosum 3H-brimonidine concentration” value is 993.79 ± 48.43 ng/g. Besides, the “corpus callosum concentration higher than in the right optic nerve” value in series [1] (at 5 min, P<0.001) is given as 763%. Further, the “brimonidine concentration in the corpus callosum higher than in the blood” value in series [1] (at 5 minutes, P<0.001) worked out at 148 folds. The “drug concentration detected in the blood samples” value in series [1] (blood, after ocular instillation) is given as “extremely low”. For the same molecule, in series [1] (contralateral eye), the “time of brimonidine delivery to the ciliary body of the contralateral eye” value was under 5 min. Besides, the “ciliary body brimonidine level” value in series [1] (contralateral eye, 5 minutes post drug application) is 444.28 ± 86.38 ng/g. Besides, the “ciliary body brimonidine level, peak” value in series [1] (contralateral eye, 15 minutes) amounted to 619.74 ± 36.35 ng/g. In series [1] (contralateral eye, P<0.001), the “ciliary body AUC higher than in the conjunctiva” value is listed as 340% and the “ciliary body AUC higher than in the retina” value is listed as 322%. In series [1] (contralateral eye, P<0.01), the “choroid AUC higher than in the conjunctiva” value is listed as 290% and the “choroid AUC higher than in the retina” value was determined as 275%. Moreover, the “drug levels observed in the olfactory bulbs” value in series [1] (olfactory bulbs) is listed as “low”. Besides, the “Vitreal AUC as % of aqueous humor AUC” value in series [1] (treated eye, P<0.01) turned out to be 8.85%. Moreover, in series [1] (treated eye, p<0.001), the “Choroidal brimonidine AUC higher than retinal AUC” value is 196%, the “Retinal AUC higher than vitreous AUC” value came to 636% and the “Vitreal AUC as % of retinal AUC” value was found to be 15.7%. In series [1] (whole study period, P<0.001), the “brimonidine AUC corpus callosum higher than blood” value is 40 folds. In series [2], the systemic half life is 3 h. The effect on memory entry in series [3] is “reliable but modest improvement of memory”. In addition, the “effect on release of serotonin (5-HT)” value in series [4] is listed as “inhibitory action”.
“tartrate of 5-bromo-6-(2-imidozolin-2-ylamino) quinoxaline [brimonidine tartrate]”: in series [5], the “patient-reported effect on migraine related symptoms” value is given as “substantial relief of migraine related symptoms”.
